Data taken from patent publication US7582616B2, “Nucleoside transport inhibitors” (Quesrema Enterprises LLC, priority 2003, dated 2009).
Marks after values point to notes of the source that are not given here.

Tests used:
rat heart = assay: Rat heart isolated model, recovery from global ischemia; format: in vivo; conditions: for Percentage recovery relative to control levels: global ischemia; for Change in EDP / Recovery from 30 min Global Ischemia (LVDP): treatment during ischemia and reperfusion, mean SEM; for Change in EDP: end diastolic pressure; for Recovery from 30 min Global Ischemia (LVDP): left ventricular developed pressure
Excerpt: In addition, treatment with compound 4 also appears to keep the heart more relaxed than treatment with either control or NBMPR, an added benefit not seen with the standard agent.

[1] = target: T1, es nucleoside transporter (Homo sapiens, UniProt Q99808); assay: Flow cytometric es nucleoside transporter binding assay (displacement of 5-(SAENTA)-X8-fluorescein) in K562 cells; conditions: for Ki: 25 nM 5-(SAENTA)-X8-fluorescein, 45 minutes, room temperature, read-out: Flow Cytometrically-Determined Ki Values; for Ki at the es transporter, in words: displacement of 5-(SAENTA)-X8-fluorescein
T1 construct: endogenous in cells; host or cells: K562 human chronic myelogenous leukemia cells (intact cells)
T1 sequence (Q99808 1-456): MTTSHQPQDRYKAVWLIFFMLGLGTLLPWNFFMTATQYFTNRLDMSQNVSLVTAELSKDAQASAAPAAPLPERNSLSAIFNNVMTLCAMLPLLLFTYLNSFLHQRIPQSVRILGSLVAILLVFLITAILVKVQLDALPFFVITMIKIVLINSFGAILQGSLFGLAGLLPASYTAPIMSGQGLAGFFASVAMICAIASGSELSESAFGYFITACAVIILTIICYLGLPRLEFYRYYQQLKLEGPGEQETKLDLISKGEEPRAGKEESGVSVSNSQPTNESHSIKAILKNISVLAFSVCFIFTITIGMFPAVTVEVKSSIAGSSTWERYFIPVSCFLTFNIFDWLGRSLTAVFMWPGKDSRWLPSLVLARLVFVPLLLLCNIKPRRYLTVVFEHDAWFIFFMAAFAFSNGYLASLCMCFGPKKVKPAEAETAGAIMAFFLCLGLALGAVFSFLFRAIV
Method: FIG. 1 is a graph showing the equilibrium displacement of SAENTA-fluorescein ligand by of new tetrahydroisoquinoline constrained NBMPR analogs in K562 cells. Cells are incubated with 25 nM SAENTA fluorescein in the presence of inhibitor for 45 minutes at room temperature and analyzed by flow cytometry.
Exemplary compounds are tested to determine their es nucleoside transporter binding ability by a flow cytometric assay (Buolamwini et al., 1994). Human leukemia K562 cells growing in RPMI 1640 medium are washed once and suspended at 1.6×10^6 cells/ml in phosphate-buffered saline at pH 7.4, and incubated with 5-(SAENTA)-X8-fluorescein (25 nM) in the presence or absence of varying concentrations of test compounds at room temperature for 45 minutes. Flow cytometric measurements for cell-associated fluorescence are then performed with a FACSCalibur (Becton Dickinson, San Jose, Calif.) equipped with a 15 mW-argon laser (Molecular Resources Flow Cytometry Facility, University of Tennessee Health Sciences Center). In each assay, 5,000 cells are analyzed from suspensions of 4×10^5 cells/ml. The units of fluorescence are arbitrary channel numbers. Percentage (%) of control (i.e. es transporter-specific fluorescence in the presence of SAENTA-fluor without test compounds) is calculated for each sample by the equation below.
[formula] • where SFs is the es transporter-specific fluorescence of test samples, and SFf is the es transporter-specific fluorescence of the SAENTA-fluor ligand standard.
The results are fed into the PRISM program (GraphPad, San Diego, Calif.) to derive concentration-dependent curves using nonlinear regression, as shown in FIG. 1. From these curves, the IC50 values are obtained that are used to compare abilities of the new compounds to displace the es transporter-specific ligand (5-(SAENTA)-X8-fluorescein (Buolamwini et al., 1994).
Examples of the present invention (2-5) are tested along with 6-(1,2,3,4-tetrahydroisoquinolinyl)purine riboside (23) as es transporter binding ligands by a facile competitive binding flow cytometric assay using the K562 chronic myelogenous leukemia cell line. The high-affinity es transporter fluorescent ligand, 5-(SAENTA)-X8-fluorescein is used as the competitive ligand to be displaced by the test compounds.

[2] = test system: nucleoside transporter (uridine uptake in JB6 cells); assay: Inhibition of [3H]uridine uptake in JB6 cells; format: cell-based; conditions: 1 μM [3H]uridine, 10-second uptake
Method: FIG. 2 is a graph showing inhibition of [^3H]uridine uptake by NBMPR (•) and a novel tetrahydroisoquinoline analogue compound 12 (◯) in JB6 cells. Cells in logarithmic phase of growth are incubated with 1 μM […] and 10-second uptake measurements were performed as described in Paterson et al. (1983). The data points are mean ±std for triplicate samples.
Cells in logarithmic phase of growth are incubated with 1 μM [^3H]uridine and 10-second uptake measurements are performed as described in Paterson et al. (1983).

es transporter = target: T2, es transporter (Homo sapiens, UniProt Q99808); conditions: product of in vivo loss of the nitrobenzyl group of NBMPR; cited from earlier work
T2 sequence (Q99808 1-456): T1 sequence (Q99808 1-456)

Question: What does the source list for O=[N+]([O-])c1ccc(CSc2ncnc3c2ncn3[C@@H]2O[C@H](CO)[C@@H](O)[C@H]2O)cc1 [Compound 1, nitrobenzylthioinosine, reference compound]?
Answer: Percentage recovery relative to control levels (rat heart): doubles; Change in EDP (rat heart): 65.2 ± 3.2%; Recovery from 30 min Global Ischemia (LVDP) (rat heart): 24.40 ± 3.6% (n = 5)^d

Question: Which results are given for O=[N+]([O-])c1cccc2c1CCN(c1ncnc3c1ncn3[C@@H]1O[C@H](CO)[C@@H](O)[C@H]1O)C2 [Compound 2]?
Answer: IC50 / binding to the es transporter (inhibition of SAENTA-fluor binding), in words, FIG. 1 [1]: much less potent inhibitors; Ki [1]: 0.25 µM; Ki at the es transporter, in words [1]: high nanomolar concentrations

Question: Which results are given for O=[N+]([O-])c1ccc2c(c1)CCN(c1ncnc3c1ncn3[C@@H]1O[C@H](CO)[C@@H](O)[C@H]1O)C2 [Compound 3]?
Answer: IC50 / binding to the es transporter (inhibition of SAENTA-fluor binding), in words, FIG. 1 [1]: bound as tightly as the prototype compound, NBMPR; Ki [1]: 0.015 µM; melting point: 148 to 149 °C

Question: With O=[N+]([O-])c1ccc2c(c1)CN(c1ncnc3c1ncn3[C@@H]1O[C@H](CO)[C@@H](O)[C@H]1O)CC2 [Compound 4] as the compound, how does the “IC50 / binding to the es transporter (inhibition of SAENTA-fluor binding), in words, FIG. 1” value [1] read?
Answer: low nanomolar range

Question: And the Ki [1]?
Answer: 0.00045 µM

Question: What about the “Percentage recovery relative to control levels” value (rat heart) of the same compound?
Answer: triples

Question: What about the “Change in EDP” value (rat heart) of the same compound?
Answer: 52.5 ± 6.6%^f

Question: What about the “Recovery from 30 min Global Ischemia (LVDP)” value (rat heart) of the same compound?
Answer: 33.60 ± 9.8% (n = 4)^e

Question: What about the “IC50 for inhibition of uridine uptake, FIG. 2” value [2] of the same compound?
Answer: single digit nanomolar range

Question: With O=[N+]([O-])c1cccc2c1CN(c1ncnc3c1ncn3[C@@H]1O[C@H](CO)[C@@H](O)[C@H]1O)CC2 [Compound 5] as the compound, how does the “IC50 / binding to the es transporter (inhibition of SAENTA-fluor binding), in words, FIG. 1” value [1] read?
Answer: much less potent inhibitors

Question: And the Ki [1]?
Answer: 0.3 µM

Question: And the “Ki at the es transporter, in words” value [1]?
Answer: high nanomolar concentrations

Question: Which Ki [1] does the source give for OC[C@H]1O[C@@H](n2cnc3c(N4CCc5ccccc5C4)ncnc32)[C@H](O)[C@@H]1O [Compound 23, 6-(1,2,3,4-tetrahydroisoquinolinyl)purine riboside] here?
Answer: 0.15 µM

Question: Which “Decrease in es transporter affinity compared with NBMPR” value (es transporter) does the source give for OC[C@H]1O[C@@H](n2cnc3c(=S)nc[nH]c32)[C@H](O)[C@@H]1O [mercaptopurine riboside] here?
Answer: ≤ 1000 fold
